Assay results taken from article PMC8365601, “Terphenyl-Based Small-Molecule Inhibitors of Programmed Cell Death-1/Programmed Death-Ligand 1 Protein–Protein Interaction” (Journal of Medicinal Chemistry, 2021).
Where two headings read alike, the source gives them in different places.

Target: PD-1/PD-L1 complex (Homo sapiens, UniProt Q9NZQ7)
Assay: HTRF assay of PD-1/PD-L1 complex dissociation (CisBio);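 note: human PD-L1 at 5 nM with human PD-1 at 50 nM, TR-FRET signal read after 2 h at room temperature, background removed via negative control and scaled to positive control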
Conditions: for remaining activity at 5 µM / remaining activity at 0.005 µM / remaining activity at 50 µM: 2 h; for % of the undissociated complex: 5 μM; for IC50: HTRF; for % of undissociated complex: at 50 μM, Table S1; for HTRF % of the undissociated complex: determined at 50 μM inhibitor (footnote a), Table 2
[1] = read-out: % of the undissociated complex in HTRF
[2] = read-out: % of undissociated complex at 5 μM
[3] = read-out: HTRF % of the undissociated complex at 5 μM
[4] = read-out: % of undissociated complex at 5 nM
[5] = read-out: HTRF % of the undissociated complex at 5 nM
[6] = Table 4, <1.00 = limit of quantification reached

Sequence of PD-1/PD-L1 complex (Q9NZQ7 19-238 limits assumed, one chain of several): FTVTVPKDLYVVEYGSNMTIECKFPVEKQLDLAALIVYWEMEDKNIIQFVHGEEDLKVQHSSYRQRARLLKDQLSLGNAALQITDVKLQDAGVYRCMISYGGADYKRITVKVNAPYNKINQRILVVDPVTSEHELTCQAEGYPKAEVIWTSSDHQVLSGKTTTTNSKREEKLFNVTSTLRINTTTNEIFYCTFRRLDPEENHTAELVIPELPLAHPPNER
Method: HTRF was performed using the certified CisBio assay according to the manufacturer’s guidelines. The experiments were performed at 5 nM h-PD-L1 and 50 nM hPD-1 in the final formulation at 20 μL final volume in the well. To determine the half-maximal inhibitory concentration (IC50) of tested compounds, measurements were performed on two individual dilution series, unless states otherwise. After mixing all components according to the CisBio protocol, the plate was left for 2 h incubation at room temperature, followed by time-resolved fluorescence energy transfer (TR-FRET) measurement on Tecan Spark 20M. Collected data were background-subtracted on the negative control, normalized on the positive control, averaged, and fitted with normalized Hill’s equation to determine the IC50 value using Mathematica 12.

SMILES	remaining activity at 5 µM [1]	remaining activity at 5 µM [2]	remaining activity at 5 µM [3]	remaining activity at 0.005 µM [4]	remaining activity at 0.005 µM [5]	further results
Cc1c(-c2ccc(Cn3cc(C(=O)O)nn3)cc2)cccc1-c1ccc2c(c1)OCCO2 [5h, 1-((3′-(Benzo-1,4-dioxan-6-yl)-2′-methyl-[1,1′-biphenyl]-4-yl)methyl)-1H-1,2,3-triazole-4-carboxylic Acid]	100%	100%	100%	–	–	–
Cc1c(-c2ccc(COc3cc(C(=O)O)on3)cc2)cccc1-c1ccc2c(c1)OCCO2 [5f, 3-((3′-(Benzo-1,4-dioxan-6-yl)-2′-methyl-[1,1′-biphenyl]-4-yl)methoxy)isoxazole-5-carboxylic Acid]	90%	90%	90%	–	–	–
Cc1c(-c2ccc(CN3CCNCC3)cc2)cccc1-c1ccc2c(c1)OCCO2 [6b, 4-((3′-(Benzo-1,4-dioxan-6-yl)-2′-methyl-[1,1′-biphenyl]-4-yl)methyl)piperazine]	5%	5%	5%	–	–	% of the undissociated complex: 5%
Cc1c(-c2ccc3c(c2)OCCO3)cccc1-c1ccccc1COc1cc(C(=O)O)on1 [5r, 3-((3′-(Benzo-1,4-dioxan-6-yl)-2′-methyl-[1,1′-biphenyl]-2-yl)methoxy)isoxazole-5-carboxylic Acid]	100%	100%	100%	–	–	–
OCc1ccc(-c2cccc(-c3ccc4c(c3)OCCO4)c2Br)cc1 [4f, (3′-(Benzo-1,4-dioxan-6-yl)-2′-bromo-[1,1′-biphenyl]-4-yl)methanol]	15%	15%	15%	–	–	IC50 (Table 1): 950 ± 20 nM
Cc1c(-c2ccc(CN3CCNCC3)c(OCc3cccc(C#N)c3)c2)cccc1-c1ccc2c(c1)OCCO2 [6e, 3-(((3′-(Benzo-1,4-dioxan-6-yl)-2′-methyl-4-(piperazin-1-ylmethyl)-[1,1′-biphenyl]-3-yl)oxy)methyl)benzonitrile]	–	–	–	88%	88%	–
Cc1c(-c2cccc(CO)c2)cccc1-c1ccc2c(c1)OCCO2 [4b, (3′-(Benzo-1,4-dioxan-6-yl)-2′-methyl-[1,1′-biphenyl]-3-yl)methanol]	88%	88%	88%	–	–	–
Cc1c(-c2ccc(COc3ccc(-c4cccnc4)c(C=O)c3)cc2)cccc1-c1ccc2c(c1)OCCO2 [5d, 5-((3′-(Benzo-1,4-dioxan-6-yl)-2′-methyl-[1,1′-biphenyl]-4-yl)methoxy)-2-(pyridin-3-yl)benzaldehyde]	–	–	–	–	–	remaining activity at 50 µM [1]: 65%; % of undissociated complex: 65%; HTRF % of the undissociated complex: 65^[a] %
Cc1c(-c2ccc3c(c2)OCCO3)cccc1-c1ccccc1COc1cccc(C(=O)O)c1 [5p, 3-((3′-(Benzo-1,4-dioxan-6-yl)-2′-methyl-[1,1′-biphenyl]-2-yl)methoxy)benzoic Acid]	–	–	–	–	–	remaining activity at 50 µM [1]: 87%; % of undissociated complex: 87%; HTRF % of the undissociated complex: 87^[a] %
OCc1ccc(-c2cccc(-c3ccc4c(c3)OCCO4)c2I)cc1 [4g, (3′-(Benzo-1,4-dioxan-6-yl)-2′-iodo-[1,1′-biphenyl]-4-yl)methanol]	56%	56%	56%	–	–	–
OCc1ccc(-c2cccc(-c3ccc4c(c3)OCCO4)c2Cl)cc1 [4e, (3′-(Benzo-1,4-dioxan-6-yl)-2′-chloro-[1,1′-biphenyl]-4-yl)methanol]	1%	1%	1%	–	–	IC50: ~500 nM; IC50 (Table 1): 510 ± 10 nM
CC(=O)NCCNCc1ccc(-c2cccc(-c3ccc4c(c3)OCCO4)c2Cl)cc1OCc1cccc(-c2cccc(C#N)c2)c1 [7h, N-(2-(((3′-(Benzo-1,4-dioxan-6-yl)-2′-chloro-3-((3′-cyano-[1,1′-biphenyl]-3-yl)methoxy)-[1,1′-biphenyl]-4-yl)methyl)amino)ethyl)acetamide]	–	–	–	100%	100%	–
Cc1c(-c2cccc(COc3cc(C(=O)O)on3)c2)cccc1-c1ccc2c(c1)OCCO2 [5n, 3-((3′-(Benzo-1,4-dioxan-6-yl)-2′-methyl-[1,1′-biphenyl]-3-yl)methoxy)isoxazole-5-carboxylic Acid]	77%	77%	77%	–	–	–
Cc1c(-c2cccc(COc3cccc(C(=O)O)c3)c2)cccc1-c1ccc2c(c1)OCCO2 [5j, 3-((3′-(Benzo-1,4-dioxan-6-yl)-2′-methyl-[1,1′-biphenyl]-3-yl)methoxy)benzoic Acid]	90%	90%	90%	–	–	–
CC(=O)NCCNCc1ccc(-c2cccc(-c3ccc4c(c3)OCCO4)c2Cl)cc1OCC1CCC1 [7f, N-(2-(((3′-(Benzo-1,4-dioxan-6-yl)-2′-chloro-3-(cyclobutylmethoxy)-[1,1′-biphenyl]-4-yl)methyl)amino)ethyl)acetamide]	–	–	–	53%	53%	–
COc1cc(-c2cccc(-c3ccc4c(c3)OCCO4)c2Cl)ccc1CN1CCNCC1 [8a, 1-((3′-(Benzo-1,4-dioxan-6-yl)-2′-chloro-3-methoxy-[1,1′-biphenyl]-4-yl)methyl)piperazine]	–	–	–	38%	38%	IC50 [6]: 18.09 ± 0.09 nM
Nc1c(-c2ccc(CO)cc2)cccc1-c1ccc2c(c1)OCCO2 [4d, (2′-Amino-3′-(benzo-1,4-dioxan-6-yl)-[1,1′-biphenyl]-4-yl)methanol]	73%	73%	73%	–	–	–
CC(=O)NCCNCc1ccc(-c2cccc(-c3ccc4c(c3)OCCO4)c2Cl)cc1OC(C)C [7c, N-(2-(((3′-(Benzo-1,4-dioxan-6-yl)-2′-chloro-3-isopropoxy-[1,1′-biphenyl]-4-yl)methyl)amino)ethyl)acetamide]	–	–	–	5%	5%	–
CCOc1cc(-c2cccc(-c3ccc4c(c3)OCCO4)c2Cl)ccc1CNCCNC(C)=O [7b, N-(2-(((3′-(Benzo-1,4-dioxan-6-yl)-2′-chloro-3-ethoxy-[1,1′-biphenyl]-4-yl)methyl)amino)ethyl)acetamide]	–	–	–	5%	5%	–
Cc1c(-c2ccc(CN3CCOCC3)cc2)cccc1-c1ccc2c(c1)OCCO2 [6a, 4-((3′-(Benzo-1,4-dioxan-6-yl)-2′-methyl-[1,1′-biphenyl]-4-yl)methyl)morpholine]	55%	55%	55%	–	–	–
Cc1c(-c2cccc(COc3ccc(-c4cccnc4)c(C=O)c3)c2)cccc1-c1ccc2c(c1)OCCO2 [5l, 5-((3′-(Benzo-1,4-dioxan-6-yl)-2′-methyl-[1,1′-biphenyl]-3-yl)methoxy)-2-(yridine-3-yl)benzaldehyde]	–	–	–	–	–	remaining activity at 50 µM [1]: 95%; % of undissociated complex: 95%; HTRF % of the undissociated complex: 95^[a] %
Cc1c(-c2ccc(COc3cccc(C(=O)O)c3)cc2)cccc1-c1ccc2c(c1)OCCO2 [5b, 3-((3′-(Benzo-1,4-dioxan-6-yl)-2′-methyl-[1,1′-biphenyl]-4-yl)methoxy)benzoic Acid]	–	–	–	–	–	remaining activity at 50 µM [1]: 71%; % of undissociated complex: 71%; HTRF % of the undissociated complex: 71^[a] %
COc1cc(-c2cccc(-c3ccc4c(c3)OCCO4)c2Cl)ccc1CN1CCN(C(N)=O)CC1 [8b, 4-((3′-(Benzo-1,4-dioxan-6-yl)-2′-chloro-3-methoxy-[1,1′-biphenyl]-4-yl)methyl)piperazine-1-carboxamide]	–	–	–	28%	28%	IC50 [6]: < 1 nM
CC(=O)NCCNCc1ccc(-c2cccc(-c3ccc4c(c3)OCCO4)c2Cl)cc1OCCC(C)C [7d, N-(2-(((3′-(Benzo-1,4-dioxan-6-yl)-2′-chloro-3-isopentyloxy-[1,1′-biphenyl]-4-yl)methyl)amino)ethyl)acetamide]	–	–	–	65%	65%	–
COc1cc(-c2cccc(-c3ccc4c(c3)OCCO4)c2C)ccc1CN1CCNCC1 [6d, 1-((3′-(Benzo-1,4-dioxan-6-yl)-3-methoxy-2′-methyl-[1,1′-biphenyl]-4-yl)methyl)piperazine]	–	–	–	63%	63%	–
Cc1c(-c2ccc3c(c2)OCCO3)cccc1-c1ccccc1CO [4c, (3′-(Benzo-1,4-dioxan-6-yl)-2′-methyl-[1,1′-biphenyl]-2-yl)methanol]	98%	98%	98%	–	–	–
COc1cc(-c2cccc(-c3ccc4c(c3)OCCO4)c2Cl)ccc1CN1CCN(S(C)(=O)=O)CC1 [8e, 1-((3′-(Benzo-1,4-dioxan-6-yl)-2′-chloro-3-methoxy-[1,1′-biphenyl]-4-yl)methyl)-4-(methylsulfonyl)piperazine]	–	–	–	88%	88%	IC50 [6]: 104 ± 2.17 nM
CC(=O)NCCNCc1ccc(-c2cccc(-c3ccc4c(c3)OCCO4)c2Cl)cc1OCC1CCCC1 [7g, N-(2-(((3′-(Benzo-1,4-dioxan-6-yl)-2′-chloro-3-(cyclopentylmethoxy)-[1,1′-biphenyl]-4-yl)methyl)amino)ethyl)acetamide]	–	–	–	76%	76%	–
Cc1c(-c2cccc(CN3CCNCC3)c2)cccc1-c1ccc2c(c1)OCCO2 [6c, 1-((3′-(Benzo-1,4-dioxan-6-yl)-2′-methyl-[1,1′-biphenyl]-3-yl)methyl)piperazine]	56%	56%	56%	–	–	% of the undissociated complex: about 56%
